Measurements: patent US20130116241A1, “NOVEL INHIBITOR COMPOUNDS OF PHOSPHODIESTERASE TYPE 10A” (AbbVie Inc., priority 2011, published 2013)

The compounds below were run against human PDE10A (UniProt Q9Y233) (assay: Measurement of PDE activity (recombinant enzyme, HTRF cAMP kit)). Details: Table 1, substrate 20 nM for PDE10, 60 minutes at 29 C, read-out: IC50.
Type: biochemical
Procedure: The recombinant PDE proteins are used in in vitro enzymatic reaction for measurement of PDE activity. These recombinant proteins, including PDE10A (human, rat and mouse PDE10) and isoforms of PDEs 1, 3, 4, and 5, were purchased from commercial vendor BPS Bioscience. The enzymatic activity of PDEs was determined by cAMP measurement kit from CisBio (IBA) using HTRF technology.
The PDE enzymatic reaction was carried out in assay buffer (20 mM Tris-HCl pH7.5, 10 mM MgCl2, 0.1% bovine serum albumin) containing enzyme and substrate. The PDE enzymes concentration ranged from 10 pM-250 pM, depending on each enzyme's specific activity. The substrate cyclic nucleotide (cAMP or cGMP) concentration used in the assay was 20 nM for PDE10, and 100 nM for other PDEs. The inhibitory effect of compound was determined by incubating various concentration of inhibitor in the enzymatic assay. Typically, compound was serial diluted in DMSO then further diluted in assay buffer. Next, the compound at varying concentration was mixed with PDE enzyme. The reaction was initiated by addition of cyclic nucleotide substrate, and incubated for 60 minutes at 29 C. The reaction was stopped by addition of lysis buffer from assay kit. The cAMP-d2 and anti-cAMP cryptate in the lysis buffer detected the level of cAMP left from the PDE hydrolysis reaction. The PDE activity is reversely correlated with the amount of cAMP left in the reaction and can be converted to the percent activity of an uninhibited control (100%). Thus, IC50 value of inhibitor can be obtained by plotting inhibitor concentration against PDE activity at that concentration.

Sequence of human PDE10A (Q9Y233 290-1055 limits assumed): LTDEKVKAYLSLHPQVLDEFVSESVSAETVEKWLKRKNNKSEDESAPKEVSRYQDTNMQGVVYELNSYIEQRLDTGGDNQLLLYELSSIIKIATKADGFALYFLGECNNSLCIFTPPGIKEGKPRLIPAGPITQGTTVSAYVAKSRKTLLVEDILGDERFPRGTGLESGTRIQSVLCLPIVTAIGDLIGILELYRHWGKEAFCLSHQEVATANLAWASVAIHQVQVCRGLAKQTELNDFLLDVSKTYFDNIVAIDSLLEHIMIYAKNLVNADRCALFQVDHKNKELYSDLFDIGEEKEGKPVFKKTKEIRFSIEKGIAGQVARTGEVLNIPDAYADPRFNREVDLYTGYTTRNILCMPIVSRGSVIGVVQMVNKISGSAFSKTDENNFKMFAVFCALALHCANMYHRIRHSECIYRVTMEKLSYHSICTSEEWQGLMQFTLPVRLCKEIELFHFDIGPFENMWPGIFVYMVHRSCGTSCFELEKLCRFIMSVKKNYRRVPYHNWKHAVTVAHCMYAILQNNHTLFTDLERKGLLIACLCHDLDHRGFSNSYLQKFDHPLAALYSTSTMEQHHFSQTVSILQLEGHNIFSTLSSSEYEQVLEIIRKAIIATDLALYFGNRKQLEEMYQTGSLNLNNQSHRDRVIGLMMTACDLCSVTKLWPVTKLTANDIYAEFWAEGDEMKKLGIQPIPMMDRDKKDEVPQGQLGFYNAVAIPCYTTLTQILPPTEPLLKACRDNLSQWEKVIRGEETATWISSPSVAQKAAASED

Compound | IC50
8-(2-Fluoro-5-methoxyphenyl)-2-[2-(quinolin-2-yl)ethyl]phthalazin-1(2H)-one [Example 164] | 100 to 200 nM
O=c1c2c(-c3ccncc3)cccc2ccn1C1CC1c1ccc2ccccc2n1 (racemic) [Example 222, anti (rac) 8-(Pyridin-4-yl)-2-(2-(quinolin-2-yl)cyclopropyl)isoquinolin-1(2H)-one] | < 100 nM
O=c1c2c(-c3ccncc3)csc2ccn1C1CC1c1ccc2ccccc2n1 (racemic) [Example 224, anti (rac) 3-(Pyridin-4-yl)-5-(2-(quinolin-2-yl)cyclopropyl)thieno[3,2-c]pyridin-4(5H)-one] | < 100 nM
O=c1c2c(-c3ccncc3)cccc2cnn1C1CC1c1ccc2ccccc2n1 (racemic) [Example 226, anti (rac) 8-Pyridin-4-yl-2-(2-quinolin-2-yl-cyclopropyl)-2H-phthalazin-1-one 2,2,2,-trifluoroacetate] | < 100 nM
O=c1c2c(NC3COC3)cccc2ccn1[C@@H]1C[C@H]1c1ccc2ccccc2n1 (racemic) [Example 235, anti 8-(Oxetan-3-ylamino)-2-(2-(quinolin-2-yl)cyclopropyl)isoquinolin-1(2H)-one] | < 100 nM
O=c1c2c(-c3cncnc3)cccc2ccn1[C@@H]1C[C@H]1c1ccc2ccccc2n1 (racemic) [Example 240, anti 8-(pyrimidin-5-yl)-2-(2-(quinolin-2-yl)cyclopropyl)isoquinolin-1(2H)-one] | < 100 nM
O=c1c2c(-c3ccnnc3)coc2ccn1[C@@H]1C[C@H]1c1ccc2ccccc2n1 (relative stereo) [Example 232, anti 3-(Pyridazin-4-yl)-5-(2-(quinolin-2-yl)cyclopropyl)furo[3,2-c]pyridin-4(5H)-one] | < 100 nM
O=c1c2c(-c3ccncc3)coc2ccn1[C@@H]1C[C@H]1c1ccc2ccccc2n1 (relative stereo) [Example 233, anti 3-(pyridin-4-yl)-5-(2-(quinolin-2-yl)cyclopropyl)furo[3,2-c]pyridin-4(5H)-one] | < 100 nM
Cn1cc(-c2cccc3ccn([C@@H]4C[C@H]4c4ccc5ccccc5n4)c(=O)c23)cn1 (relative stereo) [Example 241, anti 8-(1-methyl-1H-pyrazol-4-yl)-2-(2-(quinolin-2-yl)cyclopropyl)isoquinolin-1(2H)-one] | < 100 nM
O=c1c2c(-c3ccncc3F)cccc2ccn1[C@@H]1C[C@H]1c1ccc2ccccc2n1 (relative stereo) [Example 242, anti 8-(3-fluoropyridin-4-yl)-2-(2-(quinolin-2-yl)cyclopropyl)isoquinolin-1(2H)-one] | < 100 nM
O=c1c2c(-c3ccncc3)csc2ccn1C1CC1c1ccc2ccccc2n1 (single isomer, unassigned) [293a] | < 100 nM
O=c1c2c(-c3ccncc3)csc2ccn1C1CC1c1ccc2ccccc2n1 (single isomer, unassigned) [293b] | < 100 nM
O=c1c2c(-c3ccnnc3)cccc2ccn1C1CC1c1ccc2ccccc2n1 (single isomer, unassigned) [Example 236, anti (−) 8-(pyridazin-4-yl)-2-(2-(quinolin-2-yl)cyclopropyl)isoquinolin-1(2H)-one] | < 100 nM
O=c1c2c(-c3ccc(F)nc3)cccc2ccn1C1CC1c1ccc2ccccc2n1 (single isomer, unassigned) [Example 237, anti (−) 8-(6-fluoropyridin-3-yl)-2-(2-(quinolin-2-yl)cyclopropyl)isoquinolin-1(2H)-one] | < 100 nM
O=c1c2c(-c3ccnc(F)c3)cccc2ccn1C1CC1c1ccc2ccccc2n1 (single isomer, unassigned) [Example 238, anti (−) 8-(2-fluoropyridin-4-yl)-2-(2-(quinolin-2-yl)cyclopropyl)isoquinolin-1(2H)-one] | < 100 nM
O=c1c2c(-c3cncnc3)cccc2ccn1C1CC1c1ccc2ccccc2n1 (single isomer, unassigned) [Example 240a, anti (+) 8-(pyrimidin-5-yl)-2-(2-(quinolin-2-yl)cyclopropyl)isoquinolin-1(2H)-one] | < 100 nM

Now from value to compound:

IC50 | Compound
< 100 nM | O=c1c2c(-c3ccnc(F)c3)cccc2ccn1[C@@H]1C[C@H]1c1ccc2ccccc2n1 (relative stereo) [Example 243, anti 8-(2-fluoropyridin-4-yl)-2-(2-(quinolin-2-yl)cyclopropyl)isoquinolin-1(2H)-one]
< 100 nM | N#CC1CCN(c2cccc3ccn([C@@H]4C[C@H]4c4ccc5ccccc5n4)c(=O)c23)CC1 (relative stereo) [Example 247, anti 1-(1-oxo-2-(2-(quinolin-2-yl)cyclopropyl)-1,2-dihydroisoquinolin-8-yl)piperidine-4-carbonitrile]
< 100 nM | COC1CCN(c2cccc3ccn([C@@H]4C[C@H]4c4ccc5ccccc5n4)c(=O)c23)CC1 (relative stereo) [Example 252, anti 8-(4-methoxypiperidin-1-yl)-2-(2-(quinolin-2-yl)cyclopropyl)isoquinolin-1(2H)-one (2E)-but-2-enedioate]
< 100 nM | O=c1c2c(N3CCC(O)CC3)cccc2ccn1[C@@H]1C[C@H]1c1ccc2ccccc2n1 (relative stereo) [Example 253, anti 8-(4-hydroxypiperidin-1-yl)-2-(2-(quinolin-2-yl)cyclopropyl)isoquinolin-1(2H)-one (2E)-but-2-enedioate]
< 100 nM | O=c1c2c(-c3ccc(F)cc3)cccc2ccn1[C@@H]1C[C@H]1c1ccc2ccccc2n1 (relative stereo) [Example 267, anti 8-(4-fluorophenyl)-2-(2-(quinolin-2-yl)cyclopropyl)isoquinolin-1(2H)-one]
< 100 nM | O=c1c2c(N3CCOCC3)cccc2ccn1[C@@H]1C[C@H]1c1ccc2cc(F)ccc2n1 (relative stereo) [Example 271, anti 2-(2-(6-fluoroquinolin-2-yl)cyclopropyl)-8-morpholinoisoquinolin-1(2H)-one]
< 100 nM | O=c1c2c(-c3cncnc3)cccc2ccn1[C@@H]1C[C@H]1c1ccc2cc(F)ccc2n1 (relative stereo) [Example 273, anti 2-(2-(6-fluoroquinolin-2-yl)cyclopropyl)-8-(pyrimidin-5-yl)isoquinolin-1(2H)-one]
< 100 nM | O=c1c2c(-c3ccncc3)ccnc2cnn1[C@@H]1C[C@H]1c1ccc2ccccc2n1 (relative stereo) [Example 277, anti 4-(pyridin-4-yl)-6-(2-(quinolin-2-yl)cyclopropyl)pyrido[2,3-d]pyridazin-5(6H)-one]
< 100 nM | O=c1c2c(-c3ccncc3)cccc2cnn1[C@@H]1C[C@H]1c1ccc2cc(F)ccc2n1 (relative stereo) [compound 278]
< 100 nM | O=c1c2c(-c3ccnc(F)c3)csc2ccn1[C@@H]1C[C@H]1c1ccc2ccccc2n1 (relative stereo) [compound 286]
< 100 nM | O=c1c2c(N3CCOCC3)cccc2ccn1C1CC1c1ccc2ccccc2n1 (single isomer, unassigned) [Example 246a, anti (+) 8-morpholino-2-(2-(quinolin-2-yl)cyclopropyl)isoquinolin-1(2H)-one]
< 100 nM | O=c1c2c(N3CCOCC3)cccc2ccn1C1CC1c1ccc2ccccc2n1 (single isomer, unassigned) [Example 246b, anti (−) 8-morpholino-2-(2-(quinolin-2-yl)cyclopropyl)isoquinolin-1(2H)-one]
